The text below walks through data of US8809331B2 (Genentech, Inc., priority 2011, dated 2014).

T1 sequence (Q5S007 whole entry G2019S): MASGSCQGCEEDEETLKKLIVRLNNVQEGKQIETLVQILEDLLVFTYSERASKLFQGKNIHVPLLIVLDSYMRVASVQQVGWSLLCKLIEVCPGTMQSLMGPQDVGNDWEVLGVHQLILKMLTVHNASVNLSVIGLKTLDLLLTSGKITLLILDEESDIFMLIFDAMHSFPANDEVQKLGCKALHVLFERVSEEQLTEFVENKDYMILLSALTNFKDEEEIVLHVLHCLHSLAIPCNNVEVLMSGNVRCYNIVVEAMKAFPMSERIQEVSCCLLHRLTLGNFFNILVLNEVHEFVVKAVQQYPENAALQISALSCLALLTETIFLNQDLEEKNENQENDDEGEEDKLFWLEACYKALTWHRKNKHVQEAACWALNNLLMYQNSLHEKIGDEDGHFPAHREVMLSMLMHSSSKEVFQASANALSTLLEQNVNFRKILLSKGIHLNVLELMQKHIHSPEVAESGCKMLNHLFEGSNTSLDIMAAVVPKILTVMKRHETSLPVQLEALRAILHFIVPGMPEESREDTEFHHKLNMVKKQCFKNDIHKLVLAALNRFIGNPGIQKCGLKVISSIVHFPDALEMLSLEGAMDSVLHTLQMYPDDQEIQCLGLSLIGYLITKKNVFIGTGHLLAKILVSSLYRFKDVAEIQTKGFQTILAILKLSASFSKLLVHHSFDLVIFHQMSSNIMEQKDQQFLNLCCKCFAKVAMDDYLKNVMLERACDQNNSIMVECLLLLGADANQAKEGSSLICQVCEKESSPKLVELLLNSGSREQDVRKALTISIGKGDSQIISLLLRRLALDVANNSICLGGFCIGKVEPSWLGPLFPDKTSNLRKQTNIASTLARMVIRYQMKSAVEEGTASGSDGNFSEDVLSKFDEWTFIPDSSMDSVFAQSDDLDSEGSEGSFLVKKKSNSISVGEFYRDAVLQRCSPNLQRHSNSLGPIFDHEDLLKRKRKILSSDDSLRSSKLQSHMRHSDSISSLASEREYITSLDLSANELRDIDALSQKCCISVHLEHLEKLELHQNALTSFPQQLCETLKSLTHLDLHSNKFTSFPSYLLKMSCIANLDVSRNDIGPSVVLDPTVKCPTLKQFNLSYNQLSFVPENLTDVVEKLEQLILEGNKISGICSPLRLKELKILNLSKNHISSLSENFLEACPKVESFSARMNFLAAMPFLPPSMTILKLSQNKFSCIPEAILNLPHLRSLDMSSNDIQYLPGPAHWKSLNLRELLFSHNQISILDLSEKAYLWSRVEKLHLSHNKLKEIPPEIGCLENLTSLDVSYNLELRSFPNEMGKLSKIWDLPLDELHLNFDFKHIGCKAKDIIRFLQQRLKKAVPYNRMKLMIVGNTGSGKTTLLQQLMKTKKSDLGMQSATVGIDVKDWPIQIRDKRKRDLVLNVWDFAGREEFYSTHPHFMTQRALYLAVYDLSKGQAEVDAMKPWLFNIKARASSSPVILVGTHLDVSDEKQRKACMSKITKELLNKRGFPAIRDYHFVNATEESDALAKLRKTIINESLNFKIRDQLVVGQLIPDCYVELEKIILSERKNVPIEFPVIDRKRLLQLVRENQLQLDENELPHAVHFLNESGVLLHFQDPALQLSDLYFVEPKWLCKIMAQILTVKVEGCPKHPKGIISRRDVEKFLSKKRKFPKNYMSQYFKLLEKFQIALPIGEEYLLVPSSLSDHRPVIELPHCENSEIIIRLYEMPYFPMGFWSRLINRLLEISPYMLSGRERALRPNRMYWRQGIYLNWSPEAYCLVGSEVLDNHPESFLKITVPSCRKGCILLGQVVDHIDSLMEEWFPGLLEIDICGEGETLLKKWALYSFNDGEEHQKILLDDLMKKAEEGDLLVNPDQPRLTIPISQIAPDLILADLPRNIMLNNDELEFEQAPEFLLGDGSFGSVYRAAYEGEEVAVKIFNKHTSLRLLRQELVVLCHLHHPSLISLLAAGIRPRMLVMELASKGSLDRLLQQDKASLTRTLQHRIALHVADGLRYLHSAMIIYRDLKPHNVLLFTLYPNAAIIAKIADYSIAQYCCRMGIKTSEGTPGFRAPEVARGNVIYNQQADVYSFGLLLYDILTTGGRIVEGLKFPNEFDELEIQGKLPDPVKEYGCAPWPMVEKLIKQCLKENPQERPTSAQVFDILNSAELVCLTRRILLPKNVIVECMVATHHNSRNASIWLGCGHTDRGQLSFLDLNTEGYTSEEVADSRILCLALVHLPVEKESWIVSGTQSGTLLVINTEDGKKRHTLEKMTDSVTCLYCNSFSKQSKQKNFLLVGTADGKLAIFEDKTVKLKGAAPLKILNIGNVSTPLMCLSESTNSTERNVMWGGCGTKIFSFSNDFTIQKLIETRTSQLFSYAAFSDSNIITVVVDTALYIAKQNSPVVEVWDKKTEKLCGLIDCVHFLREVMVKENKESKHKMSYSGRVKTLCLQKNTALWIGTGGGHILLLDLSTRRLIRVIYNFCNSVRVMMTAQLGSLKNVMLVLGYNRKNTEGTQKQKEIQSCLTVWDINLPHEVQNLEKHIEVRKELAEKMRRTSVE

The test concerns the target T1, LRRK2 (Homo sapiens, UniProt Q5S007, G2019S).
T1 construct: purchased Invitrogen PV4882
In words: In Vitro LRRK2 LabChip Assay (LRRK2 Ki). The test is classed as biochemical. The settings on record: Table 5 compounds (formula I). The method, then: In Vitro LRRK2 LabChip Assay
This assay was used to determine a compound's potency in inhibiting activity of LRRK2 by determining, Kiapp, IC50, or percent inhibition values. In a polypropylene plate, LRRK2, fluorescently-labeled peptide substrate, ATP and test compound were incubated together. Using a LabChip 3000 (Caliper Life Sciences), after the reaction the substrate was separated by capillary electrophoresis into two populations: phosphorylated and unphosphorylated. The relative amounts of each were quantitated by fluorescence intensity. LRRK2 Ki was determined according to the equation: Y=V0*(1−((x+Ki*(1+S/Km)+Et)/(2*Et)−(((x+Ki*(1+S/Km)+Et)^2−(4*Et*x))^0.5)/(2*Et))). Ki values in Table 4 and elsewhere herein are shown in μM.
Assay conditions and materials used were as follows:
LRRK2 Wild type in 5 mM MgCl2: 15 nM (Invitrogen lot #500607F)
Kinase reaction time: 2 hours
Wild type in 5 mM MgCl2: 80 μM
Solid Support: Black 50 μL volume polypropylene 384 well plate (MatriCal cat # MP101-1-PP)
Kinase: LRRK2 G2019S (Invitrogen cat #PV4882). • LRRK2 Wild type (Invitrogen cat #PV4874).
Substrate: 5FAM-[…]-CONH2
Non-binding plate: 384 well clear V-bottom polypropylene plates (Greiner cat #781280).
ATP: 10 mM ATP (Cell Signaling cat #9804).
Coating Reagent #3: Coating Reagent #3 (Caliper).
Complete Reaction Buffer: H2O/25 mM Tris, pH 8.0/5 mM MgCl2/2 mM DTT/0.01% Triton X-100.
Stop Solution: H2O/100 mM HEPES, pH 7.2/0.015% Brij-35/0.2% Coating Reagent #3/20 mM EDTA.
Separation Buffer: H2O/100 mM HEPES, pH 7.2/0.015% Brij-35/0.1% Coating Reagent #3/1:200 Coating Reagent #8/10 mM EDTA/5% DMSO.
Compound Plate Preparation:
For serial dilutions, 34.6 μl DMSO was added to columns 3-24. For the assay controls, 37.5 μl DMSO was added to columns 1 and 2 of rows A and P. a, d and 50 μl 25 μM G-028831 (Staurosporine) was added to columns 1 and 2, row B. For the samples: to start at 100 μM, 37.5 μl DMSO was to columns 1 and 2, then 12.5 μl 10 mM compound; to start at 10 μM, 78 μl DMSO was added to columns 1 & 2, then 2 μl 10 mM compound; and to start at 1 μM, 25 μM compound (2 μl 10 mM cmpd+798 μl DMSO) was added to empty columns 1 and 2. A Precision instrument was used to perform 1:3.16 serial dilutions (“PLK_BM_serial_halflog”).
ATP was diluted to 282.1 μM in Complete Kinase Buffer (final concentration was 130 μM).
Total and Blank Preparation:
In Complete Reaction Buffer, substrate was diluted to 4 μM. Equal volumes of Complete Reaction Buffer and 4 μM substrate were combined to obtain the blank. Equal volumes of Complete Reaction Buffer and 4 μM substrate were combined and to the combined solution was added 2× final LRRK2 concentration.
To a 50 μl polypropylene plate, 5 μl/well buffer/substrate was added by hand to Blank wells. A Biomek FX was used to start the kinase reaction (“PLK SAR 23 ATP”). The following were added to the appropriate wells:
5 μl/well compound/ATP in Assay Plate;
5 μl/well kinase/substrate in Assay Plate;
The plate was incubated for 2 hours in the dark. Biomek FX was used to stop the kinase reaction (“PLK Stop”), and 10 μl/well Stop solution was added to the Assay Plate. Results were read on the LabChip 3000.
The LabChip 3000 was run using the job “LRRK2 IC50” with the following job settings:
Downstream voltage: −500 V
Upstream voltage: −2350 V
Post sample buffer sip time: 75 seconds
Post dye buffer sip time: 75 seconds
Final delay time: 200 seconds
In turn, `CCNc1nc(Nc2cc(OC)c(C(=O)N3CCC(F)(F)C3)cc2OC)ncc1C(F)(F)F` [Compound 56, (3,3-Difluoro-pyrrolidin-1-yl)-[4-(4-ethylamino-5-trifluoromethyl-pyrimidin-2-ylamino)-2,5-dimethoxy-phenyl]-methanone] came in with a Ki of 1.13 nM.
The compound `CCNc1nc(Nc2cc(F)c(C(=O)N3CCOCC3)c(F)c2OC)ncc1C(F)(F)F` [Compound 62, [4-(4-Ethylamino-5-trifluoromethyl-pyrimidin-2-ylamino)-2,6-difluoro-3-methoxy-phenyl]-morpholin-4-yl-methanone] came in with a Ki of 9.08 nM.
With `CNc1nc(Nc2cc(F)c(C(=O)N3C[C@@H]4C[C@H]3CO4)cc2OC)ncc1C(F)(F)F` [Compound 11, [2-Fluoro-5-methoxy-4-(4-methylamino-5-trifluoromethyl-pyrimidin-2-ylamino)-phenyl]-(1S,4S)-2-oxa-5-aza-bicyclo[2.2.1]hept-5-yl-methanone] the figure was 2.1 nM; with `CCNc1nc(Nc2cc(OC)c(C(=O)N3CC4(COC4)C3)cc2Cl)ncc1C(F)(F)F` [Compound 43, [5-Chloro-4-(4-ethylamino-5-trifluoromethyl-pyrimidin-2-ylamino)-2-methoxy-phenyl]-(2-oxa-6-aza-spiro[3.3]hept-6-yl)-methanone], 0.832 nM; with `CNc1nc(Nc2cc(OC)c(C(=O)N3CCCCC3)cc2OCF)ncc1C(F)(F)F` [Compound 110, [5-Fluoromethoxy-2-methoxy-4-(4-methylamino-5-trifluoromethyl-pyrimidin-2-ylamino)-phenyl]-piperidin-1-yl-methanone], 1.64 nM.
The value for `CCNc1nc(Nc2cc(F)c(C(=O)N3CCOCC3)cc2OCCF)ncc1C(F)(F)F` [Compound 49, [4-(4-Ethylamino-5-trifluoromethyl-pyrimidin-2-ylamino)-2-fluoro-5-(2-fluoro-ethoxy)-phenyl]-morpholin-4-yl-methanone] was 2.02 nM.
The value for `COc1cc(C(=O)N2CC[C@H](F)C2)ccc1Nc1ncc(C#N)c(NC2CC2)n1` [Compound 96, 4-Cyclopropylamino-2-[4-((S)-3-fluoro-pyrrolidine-1-carbonyl)-2-methoxy-phenylamino]-pyrimidine-5-carbonitrile] was 3.13 nM; that for `CCNc1nc(Nc2cc(F)c(C(=O)NCC3(O)CC3)cc2OC)ncc1C(F)(F)F` [Compound 115, 4-(4-Ethylamino-5-trifluoromethyl-pyrimidin-2-ylamino)-2-fluoro-N-(1-hydroxy-cyclopropylmethyl)-5-methoxy-benzamide] was 0.31 nM.
`CNc1nc(Nc2cc(OC)c(C(=O)N(C)C)cc2OCF)ncc1C(F)(F)F` [Compound 120, 5-Fluoromethoxy-2-methoxy-N,N-dimethyl-4-(4-methylamino-5-trifluoromethyl-pyrimidin-2-ylamino)-benzamide] displayed a Ki of 4.42 nM.
As for `CCNc1nc(Nc2ccc(C(=O)NC(C)(C)C)cc2OC)ncc1C#N` [Compound 46, N-tert-Butyl-4-(5-cyano-4-ethylamino-pyrimidin-2-ylamino)-3-methoxy-benzamide], the affinity, expressed as Ki, was 3.03 nM.
With `CNc1nc(Nc2ccc(C(=O)N3CCOC(C)(C)C3)cc2OC)ncc1C(F)(F)F` [Compound 83, (2,2-Dimethyl-morpholin-4-yl)-[3-methoxy-4-(4-methylamino-5-trifluoromethyl-pyrimidin-2-ylamino)-phenyl]-methanone] the figure was 1.74 nM; with `COc1nc(Nc2ccc(C(=O)N3CCOCC3)cc2O)ncc1Cl` [Compound 9, [4-(5-Chloro-4-methoxy-pyrimidin-2-ylamino)-3-hydroxy-phenyl]-morpholin-4-yl-methanone], 120 nM.
The value for `CCNc1nc(Nc2cc(C)c(C(=O)N3CC[C@H](F)C3)cc2OC)ncc1C#N` [Compound 97, 4-Ethylamino-2-[4-((S)-3-fluoro-pyrrolidine-1-carbonyl)-2-methoxy-5-methyl-phenylamino]-pyrimidine-5-carbonitrile] was 1.21 nM.
Compound `CNc1nc(Nc2cc(OC(F)(F)F)c(C(=O)N3CCOCC3)cc2OC)ncc1C(F)(F)F` [Compound 124, [5-Methoxy-4-(4-methylamino-5-trifluoromethyl-pyrimidin-2-ylamino)-2-trifluoromethoxy-phenyl]-morpholin-4-yl-methanone] came in with a Ki of 4.3 nM.
The value for `CNc1nc(Nc2cc(F)c(C(=O)N(C)C3CCN(C)CC3)cc2OC)ncc1C(F)(F)F` [Compound 7, 2-Fluoro-5-methoxy-N-methyl-4-(4-methylamino-5-trifluoromethyl-pyrimidin-2-ylamino)-N-(1-methyl-piperidin-4-yl)-benzamide] was 7.55 nM; that for `CCNc1nc(Nc2cc(F)c(C(=O)N3CC[C@H](F)C3)cc2OC)ncc1C#N` [Compound 80, 4-Ethylamino-2-[5-fluoro-4-((S)-3-fluoro-pyrrolidine-1-carbonyl)-2-methoxy-phenylamino]-pyrimidine-5-carbonitrile] was 10.4 nM.
With `CNc1nc(Nc2cc(C)c(C(=O)N3CCCC3)cc2OCF)ncc1C(F)(F)F` [Compound 101, [5-Fluoromethoxy-2-methyl-4-(4-methylamino-5-trifluoromethyl-pyrimidin-2-ylamino)-phenyl]-pyrrolidin-1-yl-methanone] the figure was 0.685 nM; with `COc1cc(C(=O)N2CCOCC2)c(F)cc1Nc1ncc(C(F)(F)F)c(NC(C)C)n1` [Compound 32, [2-Fluoro-4-(4-isopropylamino-5-trifluoromethyl-pyrimidin-2-ylamino)-5-methoxy-phenyl]-morpholin-4-yl-methanone], 3.49 nM; with `CNc1nc(Nc2cc(C(F)(F)F)c(C(=O)N3CCOCC3)cc2OC)ncc1C(F)(F)F` [Compound 67, [5-Methoxy-4-(4-methylamino-5-trifluoromethyl-pyrimidin-2-ylamino)-2-trifluoromethyl-phenyl]-morpholin-4-yl-methanone], 2.53 nM.
With `COc1cc(C(=O)N2CCOCC2)c(C)cc1Nc1ncc(C(F)(F)F)c(NC2CC2)n1` [Compound 42, [4-(4-Cyclopropylamino-5-trifluoromethyl-pyrimidin-2-ylamino)-5-methoxy-2-methyl-phenyl]-morpholin-4-yl-methanone] the figure was 0.31 nM; with `CNc1nc(Nc2cc(F)c(C(=O)N3CCN4CCCC4C3)cc2OC)ncc1C(F)(F)F` (stereo not drawn) [Compound 4, [2-Fluoro-5-methoxy-4-(4-methylamino-5-trifluoromethyl-pyrimidin-2-ylamino)-phenyl]-(hexahydro-pyrrolo[1,2-a]pyrazin-2-yl)-methanone], 3.41 nM; with `CNc1nc(Nc2cc(F)c(C(=O)N3CCC(N4CCOCC4)CC3)cc2OC)ncc1C(F)(F)F` [Compound 8, [2-Fluoro-5-methoxy-4-(4-methylamino-5-trifluoromethyl-pyrimidin-2-ylamino)-phenyl]-(4-morpholin-4-yl-piperidin-1-yl)-methanone], 0.7 nM.
For the compound `COc1cc(C(=O)N2CCOCC2)c(F)cc1Nc1ncc(C(F)(F)F)c(NC2CCC2)n1` [Compound 91, [4-(4-Cyclobutylamino-5-trifluoromethyl-pyrimidin-2-ylamino)-2-fluoro-5-methoxy-phenyl]-morpholin-4-yl-methanone], the affinity, expressed as Ki, was 0.31 nM.
With `CNc1nc(Nc2cc(C(F)(F)F)c(C(=O)N3CCOCC3)cc2OC)ncc1Cl` [Compound 68, [4-(5-Chloro-4-methylamino-pyrimidin-2-ylamino)-5-methoxy-2-trifluoromethyl-phenyl]-morpholin-4-yl-methanone] the figure was 4.73 nM.

One may read the Ki as the equilibrium dissociation constant of an inhibitor or competing ligand from its target. High values mean a looser hold on the target, low ones a stronger hold on the target.
